Laboratory results from patent US10829796B2, “Bacteria identification and antimicrobial susceptibility test” (priority 2015, dated 2020).

Assays:
Test in all cases: Antibiotic susceptibility testing (colour of media), spiked milk
Type in all cases: cell-based
Escherichia coli = conditions: 37° C., plate configuration #3
Protocol: (§1) Tables 36 to 38 which follow show further examples of antibiotic susceptibility testing performed in accordance with the present invention. Table 36, antibiotic susceptibility testing of Staphylococcus aureus in Mueller Hinton and Tryptic Soy Broth at pre-incubation and at between 15-24 h. Tables 37 and 38, antimicrobial susceptibility testing of Streptococcus uberis and E. coli with the addition of gram negative specific antibiotic aztreonam. Tables 38 to 49 show further examples of antibiotic susceptibility testing and the outcomes are aligned with the described inventions.

Streptococcus uberis = conditions: T~16 h, 37° C., bacteria samples 6d, plate configuration #3
Protocol: as §1

Staphylococcus aureus = conditions: for Colour of media: bacteria sample 5c; for Colour of media in each well: T~16 h, 37° C., plate configuration #3
Protocol: as §1

CC1(C)S[C@@H]2[C@H](NC(=O)Cc3ccccc3)C(=O)N2[C@H]1C(=O)O [benzyl penicillin]
Colour of media in each well (Escherichia coli; T~16 h, bacteria samples 4c, Benzyl Penicillin or Cloxacillin 1 μg/ml): yellow
Colour of media in each well (Escherichia coli; T~16 h, bacteria samples 4c, Benzyl Penicillin or Cloxacillin 10 μg/ml): yellow
Colour of media in each well (Escherichia coli; T~16 h, bacteria samples 4c, Benzyl Penicillin or Cloxacillin 100 μg/ml): red
Colour of media in each well (Escherichia coli; T~16 h, bacteria samples 4c, Benzyl Penicillin or Cloxacillin 1,000 μg/ml): red
Colour of media in each well (Escherichia coli; T~16 h, bacteria samples 4c, Benzyl Penicillin or Cloxacillin 10,000 μg/ml): red
Colour of media in each well (Escherichia coli; t~16 h, bacteria samples 4e, Benzyl Penicillin or Cloxacillin 1 μg/ml): yellow
Colour of media in each well (Escherichia coli; t~16 h, bacteria samples 4e, Benzyl Penicillin or Cloxacillin 10 μg/ml): yellow
Colour of media in each well (Escherichia coli; t~16 h, bacteria samples 4e, Benzyl Penicillin or Cloxacillin 100 μg/ml): Red
Colour of media in each well (Escherichia coli; t~16 h, bacteria samples 4e, Benzyl Penicillin or Cloxacillin 1,000 μg/ml): Red
Colour of media in each well (Escherichia coli; t~16 h, bacteria samples 4e, Benzyl Penicillin or Cloxacillin 10,000 μg/ml): Red
Colour of media in each well (Streptococcus uberis; Benzyl Penicillin or Cloxacillin 1 μg/ml): red
Colour of media in each well (Streptococcus uberis; Benzyl Penicillin or Cloxacillin 10 μg/ml): red
Colour of media in each well (Streptococcus uberis; Benzyl Penicillin or Cloxacillin 100 μg/ml): red
Colour of media in each well (Streptococcus uberis; Benzyl Penicillin or Cloxacillin 1,000 μg/ml): red
Colour of media in each well (Streptococcus uberis; Benzyl Penicillin or Cloxacillin 10,000 μg/ml): red
Colour of media (Staphylococcus aureus; T = 0 hours (pre incubation), drug 0.01 μg/ml, Mueller Hinton (70 ul composition 26)): red
Colour of media (Staphylococcus aureus; T = 0 hours (pre incubation), drug 0.01 μg/ml, Tryptic Soy (70 ul composition 2c)): red
Colour of media (Staphylococcus aureus; T = 0 hours (pre incubation), drug 0.01 μg/ml, Tryptic Soy, wells H (20 ul composition 2c)): red
Colour of media (Staphylococcus aureus; T = 0 hours (pre incubation), drug 0.05 μg/ml, Mueller Hinton (70 ul composition 26)): red
Colour of media (Staphylococcus aureus; T = 0 hours (pre incubation), drug 0.05 μg/ml, Tryptic Soy (70 ul composition 2c)): red
Colour of media (Staphylococcus aureus; T = 0 hours (pre incubation), drug 0.05 μg/ml, Tryptic Soy, wells H (20 ul composition 2c)): red
Colour of media (Staphylococcus aureus; T = 0 hours (pre incubation), drug 0.1 μg/ml, Mueller Hinton (70 ul composition 26)): red
Colour of media (Staphylococcus aureus; T = 0 hours (pre incubation), drug 0.1 μg/ml, Tryptic Soy (70 ul composition 2c)): red
Colour of media (Staphylococcus aureus; T = 0 hours (pre incubation), drug 0.1 μg/ml, Tryptic Soy, wells H (20 ul composition 2c)): red
Colour of media (Staphylococcus aureus; T = 0 hours (pre incubation), drug 0.5 μg/ml, Mueller Hinton (70 ul composition 26)): red
Colour of media (Staphylococcus aureus; T = 0 hours (pre incubation), drug 0.5 μg/ml, Tryptic Soy (70 ul composition 2c)): red
Colour of media (Staphylococcus aureus; T = 0 hours (pre incubation), drug 0.5 μg/ml, Tryptic Soy, wells H (20 ul composition 2c)): red
Colour of media (Staphylococcus aureus; T = 0 hours (pre incubation), drug 1 μg/ml, Mueller Hinton (70 ul composition 26)): red
Colour of media (Staphylococcus aureus; T = 0 hours (pre incubation), drug 1 μg/ml, Tryptic Soy (70 ul composition 2c)): red
Colour of media (Staphylococcus aureus; T = 0 hours (pre incubation), drug 1 μg/ml, Tryptic Soy, wells H (20 ul composition 2c)): red
Colour of media (Staphylococcus aureus; T = 0 hours (pre incubation), drug 5 μg/ml, Mueller Hinton (70 ul composition 26)): red
Colour of media (Staphylococcus aureus; T = 0 hours (pre incubation), drug 5 μg/ml, Tryptic Soy (70 ul composition 2c)): red
Colour of media (Staphylococcus aureus; T = 0 hours (pre incubation), drug 5 μg/ml, Tryptic Soy, wells H (20 ul composition 2c)): red
Colour of media (Staphylococcus aureus; T = 0 hours (pre incubation), drug 10 μg/ml, Mueller Hinton (70 ul composition 26)): red
Colour of media (Staphylococcus aureus; T = 0 hours (pre incubation), drug 10 μg/ml, Tryptic Soy (70 ul composition 2c)): red
Colour of media (Staphylococcus aureus; T = 0 hours (pre incubation), drug 10 μg/ml, Tryptic Soy, wells H (20 ul composition 2c)): red
Colour of media (Staphylococcus aureus; T = 0 hours (pre incubation), drug 50 μg/ml, Mueller Hinton (70 ul composition 26)): red
Colour of media (Staphylococcus aureus; T = 0 hours (pre incubation), drug 50 μg/ml, Tryptic Soy (70 ul composition 2c)): red
Colour of media (Staphylococcus aureus; T = 0 hours (pre incubation), drug 50 μg/ml, Tryptic Soy, wells H (20 ul composition 2c)): red
Colour of media (Staphylococcus aureus; T = 0 hours (pre incubation), drug 100 μg/ml, Mueller Hinton (70 ul composition 26)): red
Colour of media (Staphylococcus aureus; T = 0 hours (pre incubation), drug 100 μg/ml, Tryptic Soy (70 ul composition 2c)): red
Colour of media (Staphylococcus aureus; T = 0 hours (pre incubation), drug 100 μg/ml, Tryptic Soy, wells H (20 ul composition 2c)): red
Colour of media (Staphylococcus aureus; T = 0 hours (pre incubation), drug 500 μg/ml, Mueller Hinton (70 ul composition 26)): red
Colour of media (Staphylococcus aureus; T = 0 hours (pre incubation), drug 500 μg/ml, Tryptic Soy (70 ul composition 2c)): red
Colour of media (Staphylococcus aureus; T = 0 hours (pre incubation), drug 500 μg/ml, Tryptic Soy, wells H (20 ul composition 2c)): red
Colour of media (Staphylococcus aureus; T = 15-24 h at 35° C., drug 0.01 μg/ml, Mueller Hinton (70 ul composition 26)): red
Colour of media (Staphylococcus aureus; T = 15-24 h at 35° C., drug 0.01 μg/ml, Tryptic Soy (70 ul composition 2c)): yellow
Colour of media (Staphylococcus aureus; T = 15-24 h at 35° C., drug 0.01 μg/ml, Tryptic Soy, wells H (20 ul composition 2c)): red
Colour of media (Staphylococcus aureus; T = 15-24 h at 35° C., drug 0.05 μg/ml, Mueller Hinton (70 ul composition 26)): red
Colour of media (Staphylococcus aureus; T = 15-24 h at 35° C., drug 0.05 μg/ml, Tryptic Soy (70 ul composition 2c)): red
Colour of media (Staphylococcus aureus; T = 15-24 h at 35° C., drug 0.05 μg/ml, Tryptic Soy, wells H (20 ul composition 2c)): red
Colour of media (Staphylococcus aureus; T = 15-24 h at 35° C., drug 0.1 μg/ml, Mueller Hinton (70 ul composition 26)): red
Colour of media (Staphylococcus aureus; T = 15-24 h at 35° C., drug 0.1 μg/ml, Tryptic Soy (70 ul composition 2c)): red
Colour of media (Staphylococcus aureus; T = 15-24 h at 35° C., drug 0.1 μg/ml, Tryptic Soy, wells H (20 ul composition 2c)): red
Colour of media (Staphylococcus aureus; T = 15-24 h at 35° C., drug 0.5 μg/ml, Mueller Hinton (70 ul composition 26)): red
Colour of media (Staphylococcus aureus; T = 15-24 h at 35° C., drug 0.5 μg/ml, Tryptic Soy (70 ul composition 2c)): red
Colour of media (Staphylococcus aureus; T = 15-24 h at 35° C., drug 0.5 μg/ml, Tryptic Soy, wells H (20 ul composition 2c)): red
Colour of media (Staphylococcus aureus; T = 15-24 h at 35° C., drug 1 μg/ml, Mueller Hinton (70 ul composition 26)): red
Colour of media (Staphylococcus aureus; T = 15-24 h at 35° C., drug 1 μg/ml, Tryptic Soy (70 ul composition 2c)): red
Colour of media (Staphylococcus aureus; T = 15-24 h at 35° C., drug 1 μg/ml, Tryptic Soy, wells H (20 ul composition 2c)): red
Colour of media (Staphylococcus aureus; T = 15-24 h at 35° C., drug 5 μg/ml, Mueller Hinton (70 ul composition 26)): red
Colour of media (Staphylococcus aureus; T = 15-24 h at 35° C., drug 5 μg/ml, Tryptic Soy (70 ul composition 2c)): red
Colour of media (Staphylococcus aureus; T = 15-24 h at 35° C., drug 5 μg/ml, Tryptic Soy, wells H (20 ul composition 2c)): red
Colour of media (Staphylococcus aureus; T = 15-24 h at 35° C., drug 10 μg/ml, Mueller Hinton (70 ul composition 26)): red
Colour of media (Staphylococcus aureus; T = 15-24 h at 35° C., drug 10 μg/ml, Tryptic Soy (70 ul composition 2c)): red
Colour of media (Staphylococcus aureus; T = 15-24 h at 35° C., drug 10 μg/ml, Tryptic Soy, wells H (20 ul composition 2c)): red
Colour of media (Staphylococcus aureus; T = 15-24 h at 35° C., drug 50 μg/ml, Mueller Hinton (70 ul composition 26)): red
Colour of media (Staphylococcus aureus; T = 15-24 h at 35° C., drug 50 μg/ml, Tryptic Soy (70 ul composition 2c)): red
Colour of media (Staphylococcus aureus; T = 15-24 h at 35° C., drug 50 μg/ml, Tryptic Soy, wells H (20 ul composition 2c)): red
Colour of media (Staphylococcus aureus; T = 15-24 h at 35° C., drug 100 μg/ml, Mueller Hinton (70 ul composition 26)): red
Colour of media (Staphylococcus aureus; T = 15-24 h at 35° C., drug 100 μg/ml, Tryptic Soy (70 ul composition 2c)): red
Colour of media (Staphylococcus aureus; T = 15-24 h at 35° C., drug 100 μg/ml, Tryptic Soy, wells H (20 ul composition 2c)): red
Colour of media (Staphylococcus aureus; T = 15-24 h at 35° C., drug 500 μg/ml, Mueller Hinton (70 ul composition 26)): red
Colour of media (Staphylococcus aureus; T = 15-24 h at 35° C., drug 500 μg/ml, Tryptic Soy (70 ul composition 2c)): red
Colour of media (Staphylococcus aureus; T = 15-24 h at 35° C., drug 500 μg/ml, Tryptic Soy, wells H (20 ul composition 2c)): red
Colour of media in each well (Staphylococcus aureus; bacteria samples 5c, Benzyl Penicillin or Cloxacillin 1 μg/ml): red
Colour of media in each well (Staphylococcus aureus; bacteria samples 5c, Benzyl Penicillin or Cloxacillin 10 μg/ml): red
Colour of media in each well (Staphylococcus aureus; bacteria samples 5c, Benzyl Penicillin or Cloxacillin 100 μg/ml): red
Colour of media in each well (Staphylococcus aureus; bacteria samples 5c, Benzyl Penicillin or Cloxacillin 1,000 μg/ml): red
Colour of media in each well (Staphylococcus aureus; bacteria samples 5c, Benzyl Penicillin or Cloxacillin 10,000 μg/ml): red
Colour of media in each well (Staphylococcus aureus; bacteria samples 5e, Benzyl Penicillin or Cloxacillin 1 μg/ml): red
Colour of media in each well (Staphylococcus aureus; bacteria samples 5e, Benzyl Penicillin or Cloxacillin 10 μg/ml): red
Colour of media in each well (Staphylococcus aureus; bacteria samples 5e, Benzyl Penicillin or Cloxacillin 100 μg/ml): red
Colour of media in each well (Staphylococcus aureus; bacteria samples 5e, Benzyl Penicillin or Cloxacillin 1,000 μg/ml): red
Colour of media in each well (Staphylococcus aureus; bacteria samples 5e, Benzyl Penicillin or Cloxacillin 10,000 μg/ml): red
